Like-named read-outs stand apart in the source and are kept apart here.
Test: Rat in vivo CNS penetration: plasma, brain and CSF concentrations by LC-MS/MS
Conditions: male, Sprague Dawley, po, 10 mg/kg, 10 mg/kg p.o.; for concentration at 2 h / Kp at 2 h: 2 h post-dose; for concentration at 4 h / Kp at 4 h: 4 h post-dose; for concentration at 6 h / Kp at 6 h: 6 h post-dose; for concentration at 8 h / Kp at 8 h: 8 h post-dose
Protocol: Rat In Vivo CNS Penetration Male Sprague Dawley rats were acquired from Charles River UK Ltd. (Margate, UK) and housed according to UK Home Office guidelines. Drugs were made up to the appropriate concentrations in 0.5% methyl cellulose. Animals were dosed orally (2 mL/kg) by gavage at the doses outlined in Tables 1 to 4 below. At the time points post-dosing, specified in the Tables 1 to 4 below the animals were administered an i.p. injection of sodium pentobarbitone (approximately 330 mg/kg for terminal anaesthesia). Using a guillotine, the animals were decapitated and trunk blood collected into 15 ml Falcon tubes containing 100 IU heparin. Blood was vortexed followed by centrifugation at 6000 rpm, 4° C. for 5 minutes. Plasma was collected for DMPK and ELISA assays and stored at −80° C. until use. Brains were dissected out and divided along the midline, weighed and stored at −80° C. until further use. Method for Analysis of Plasma, Brain and CSF Samples Test compound was prepared as a 1 mg free base/mL solution in DMSO, vortexed and sonicated for 5 min. The 1 mg/mL DMSO solution was diluted to 10 and 30 μg/mL acetonitrile stocks, by adding 10 μL to 990 μL acetonitrile and 30 μL to 970 acetonitrile, respectively. The 10 and 30 μg/mL acetonitrile stocks were then serially diluted 1:9 (v/v) (100 μL stock into 900 μL acetonitrile) to give the following solutions: 0.003, 0.01, 0.03, 0.1, 0.3, 1, 3, 10 and 30 μg/mL acetonitrile. Control male Sprague Dawley rat plasma and the study plasma samples were stored at −80° C. until the day of analysis when they were thawed at room temperature. Control plasma was centrifuged (2,000 g for 10 min) and aliquoted (90 μL) into eppendorf tubes for preparation of standards and blank samples. Study samples were previously aliquoted (100 μL) into eppendorf tubes immediately following collection of the plasma. An aliquot (10 μL) of the appropriate acetonitrile stock was added to the control plasma (to give a final volume of 100 μL) to give the required calibration standards covering the range 1-3000 ng/mL. Double blank and blank samples were prepared by adding 10 μL of acetonitrile to 90 μL of blank plasma. Control male Sprague Dawley rat brain and the study brain samples were weighed after collection and stored at −80° C. until the day of analysis when they were thawed at room temperature. Once thawed brains were diluted with water (4 mL per gram of tissue) and homogenised using a mechanical homogeniser. An aliquot (100 μL) of each study sample was taken into Micronics tubes ready for analysis and sufficient aliquots (90 μL) of control brain homogenate prepared for preparation of standards and blanks. An aliquot (10 μL) of the appropriate acetonitrile stocks was added to the control brain homogenate (to give a final volume of 100 μL) to give the required calibration standards covering the range 1.5-5000 ng/g. Double blank and blank samples were prepared by adding 10 μL of acetonitrile to 90 μL of blank brain homogenate. Each plasma and brain homogenate sample, standard and blank (100 μL) was extracted with an aliquot (300 μL) of acetonitrile (containing 0.1% formic acid and 100 ng/mL of an appropriate internal standard). Double blanks were extracted with an aliquot (300 μL) of acetonitrile containing 0.1% formic acid). All samples, standards and blanks were then vortex mixed and centrifuged (2000 g for 15 min). An aliquot (50 μL) of the resulting supernatant was then taken into a 2 mL 96-deep well plate and diluted with acetonitrile:water (50:50 v/v) (150 μL) ready for analysis by a specific LC-MS/MS method. Control male Sprague Dawley rat CSF and the study CSF samples were stored at −80° C. until the day of analysis when they were thawed at room temperature. An aliquot (50 μL) of each study sample was taken into Micronics tubes ready for analysis and sufficient aliquots (45 μL) of control CSF prepared for preparation of standards and blanks. […]

[1] = CSF, CSF concentration, read-out: [CSF]
[2] = brain, total brain concentration, read-out: [Br]
[3] = brain, unbound brain, [Br] x Br Fu, read-out: [Bru]
[4] = plasma, total plasma concentration, read-out: [Pl]
[5] = plasma, unbound plasma, [Pl] x Pl Fu, read-out: [Plu]

Row | SMILES | concentration at 2 h [1] [nM] | Kp at 2 h (CSF, read-out: CSF:Plu) | concentration at 4 h [1] [nM] | Kp at 4 h (CSF, read-out: CSF:Plu) | concentration at 6 h [1] [nM] | Kp at 6 h (CSF, read-out: CSF:Plu) | concentration at 8 h [1] [nM] | Kp at 8 h (CSF, read-out: CSF:Plu) | Kp at 2 h (brain, read-out: Brtot:Pltot) | Kp at 2 h (brain, read-out: Bru:Plu) | concentration at 2 h [2] [nM] | concentration at 2 h [3] [nM] | Kp at 4 h (brain, read-out: Brtot:Pltot) | Kp at 4 h (brain, read-out: Bru:Plu) | concentration at 4 h [2] [nM] | concentration at 4 h [3] [nM] | Kp at 6 h (brain, read-out: Brtot:Pltot) | Kp at 6 h (brain, read-out: Bru:Plu) | concentration at 6 h [2] [nM] | concentration at 6 h [3] [nM] | other results
1 | COc1cnc(C(=O)Nc2ccc(F)c([C@]34CO[C@H](CF)[C@H]3CSC(N)=N4)c2)cn1 [Example 2, N-(3-((4aS,5S,7aS)-2-amino-5-(fluoromethyl)-4a,5,7,7a-tetrahydro-4H-furo[3,4-d][1,3]thiazin-7a-yl)-4-fluorophenyl)-5-methoxypyrazine-2-carboxamide] | 133 | 0.6 | 201 | 1.2 | 60 | 0.7 | 68 | 1.2 | 2.1 | 0.6 | 1780 | 118 | 2.1 | 0.5 | 1340 | 88 | 2 | 0.5 | 703 | 46 | Kp at 8 h (brain, read-out: Brtot:Pltot): 2.1; Kp at 8 h (brain, read-out: Bru:Plu): 0.6; concentration at 8 h [2]: 479 nM; concentration at 8 h [3]: 32 nM; concentration at 2 h [4]: 850 nM; concentration at 2 h [5]: 214 nM; concentration at 4 h [4]: 645 nM; concentration at 4 h [5]: 163 nM; concentration at 6 h [4]: 353 nM; concentration at 6 h [5]: 89 nM; concentration at 8 h [4]: 224 nM; concentration at 8 h [5]: 56 nM
2 | COc1cnc(C(=O)Nc2ccc(F)c([C@]34CO[C@H](C(F)F)[C@H]3CSC(N)=N4)c2)cn1 [Example 3, N-(3-((4aS,5S,7aS)-2-amino-5-(difluoromethyl)-4a,5,7,7a-tetrahydro-4H-furo[3,4-d][1,3]thiazin-7a-yl)-4-fluorophenyl)-5-methoxypyrazine-2-carboxamide] | 34 | 0.6 | 16 | 0.5 | 15 | 0.5 | 9 | 0.7 | 2.8 | 0.7 | 1090 | 38 | 2.5 | 0.6 | 576 | 20 | 2.4 | 0.6 | 561 | 20 | Kp at 8 h (brain, read-out: Brtot:Pltot): 3; Kp at 8 h (brain, read-out: Bru:Plu): 0.7; concentration at 8 h [2]: 257 nM; concentration at 8 h [3]: 9 nM; concentration at 2 h [4]: 385 nM; concentration at 2 h [5]: 55 nM; concentration at 4 h [4]: 226 nM; concentration at 4 h [5]: 32 nM; concentration at 6 h [4]: 232 nM; concentration at 6 h [5]: 33 nM; concentration at 8 h [4]: 85 nM; concentration at 8 h [5]: 12 nM

— patent US9175013B2, “Fused aminodihydrothiazine derivatives” (Eisai R&D Management Co., Ltd., priority 2011, dated 2015)
